In patent publication US7531320B2, “Modulation of β-catenin/TCF-activated transcription” (priority 2003, dated 2009):

System: cyclin D1
Experiment: Real Time RT-PCR in SW480 cells, cyclin D1
Type: cell-based, human
Settings: 25 μM; for ΔCT cyclin D1: relative to β-actin
Description: The RNeasy Midi Kit (Qiagen) was used for RNA extraction and Real Time RT-PCR was performed according to the protocol provided with the SYBR Green PCR Master Mix Kit (Perkin Elmer Biosystems, Shelton, Conn.). The primers used for cyclin D1, axin2, hnkd, c-myc, c-jun, and fra-1 amplifications were: cyclin D1 forward primer:5′-[…]-CCTGCTG-3′ (SEQ ID NO: 32) reverse primer: 5′-[…]-3′ (SEQ ID NO: 33) leading to a product size of approximately 300 bp; axin2 forward primer: 5′-[…] GGAAA-CT-3′ (SEQ ID NO: 34) and reverse primer: 5′-[…]-GAGA-3′ (SEQ ID NO: 35); hnkd forward primer: 5′-[…] TTGCGT-3′ (SEQ ID NO: 36) and the reverse primer: 5′-[…] ACGT-3′ (SEQ ID NO: 37); c-myc forward primer: 5′-GAA-[…] CTGC-3′ (SEQ ID NO: 38) and reverse primer: 5′-[…]-G-3′ (SEQ ID NO: 39); c-jun forward primer: 5′-[…]-3′ (SEQ ID NO: 40) and reverse primer: 5′-[…]-3′ (SEQ ID NO: 41); fra-1 forward primer: 5′-ACC-[…]-[…]-3′ (SEQ ID NO: 42) and reverse primer: 5′-[…]-TT-3′ (SEQ ID NO: 43). β-actin was used for normalization. […]
1 μg of mRNA, for each time point, was subjected to Real Time RT-PCR. Expression level of endogenous cyclin D1, c-myc, fibronectin, hnkd, axin2, c-jun, and BMP-4 were measured relative to β-actin. Quantitation of The ΔCycle of Threshold (CT) values was determined by subtracting the average values of each set by the corresponding average values obtained for β-actin. […]
The cyclin D1 gene is inappropriately expressed in many different tumor types, and is known to be a direct target of the Wnt/β-catenin pathway (Shtutman et al., “The cyclin D1 gene is a target of the beta-catenin/LEF-1 pathway,” Proc. Natl. Acad. Sci. USA 96:5522-27 (1999); Tetsu et al., “Beta-catenin regulates expression of cyclin D1 in colon carcinoma cells,” Nature 398:422-26 (1999)). […] Expression level of endogenous cyclin D1, c-myc, fibronectin, hnkd, axin2, c-jun, and BMP-4 were measured relative to β-actin. Quantitation of The ΔCycle of Threshold (CT) values was determined by subtracting the average values of each set by the corresponding average values obtained for β-actin. […]

Q: For `O=C1C(Cc2ccc(O)cc2)N2C(=O)CCN(C(=O)NCc3ccccc3)C2CN1Cc1cccc2ccccc12` (stereo not drawn) [COMPOUND 1], which “mRNA cyclin D1 (direction)” value is on record?
A: ↓

Q: What about the “ΔCT cyclin D1” value (4 hours) of the same compound?
A: 0.6

Q: And the “ΔCT cyclin D1” value (24 hours)?
A: 3.1
